Test results from patent US20050118099A1, “Thiol-mediated drug attachment to targeting peptides” (priority 2003, published 2005).
One block for each molecule: values may come before it.

Experiments:
[1] = following four administrations; prior studies; cited from earlier work
[2] = Animal weight in IMR-32 mouse xenograft model; format: in vivo; conditions: AE at 75% of the MTD
Procedure: (§1) FIGS. 3A-3B are line graphs depicting tumor growth inhibition in an IMR-32 mouse xenograft model following administration of AE (◯), 1×CP1-FKMMAE (□), or 3×CP1-FKMMAE (⋄). The control sample depicts uninhibited tumor growth (X). Arrows indicate the times of administration, as described in Example 5.
(§2) The tumoricidal effects of CP1-FKMMAE were evaluated in a mouse xenograft model. Tumors were established in nude mice by subcutaneous injection of IMR-32 cells. A multiple dose regimen was evaluated based on prior studies using AE, which determined a MTD following four administrations of 0.4 mg/kg. Due to limited availability, AE was used at 75% of the MTD. CP1-FKMMAE was administered at 1× and 3× molar equivalents of AE according to the same dosing schedule. Tumor volume, animal weight, and serum growth hormone levels were assessed for each treatment group.

growth hormone = assay: Serum growth hormone levels (ELISA) in IMR-32 mouse xenograft model; format: in vivo; conditions: AE at 75% of the MTD, potential toxicity to the pituitary gland
Procedure: FIG. 4 is a line graph depicting growth hormone levels in an IMR-32 mouse xenograft model following administration of AE (◯), 1×CP1-FKMMAE (□), or 3×CP1-FKMMAE (⋄). The control sample depicts growth hormone levels in the absence of treatment (X). Arrows indicate the times of administration, as described in Example 5. Serum growth hormone levels were determined by ELISA to assess potential toxicity to the pituitary gland.
as §2

IMR-32 cells = assay: Tumor growth inhibition in IMR-32 mouse xenograft model; format: in vivo; conditions: AE at 75% of the MTD, multiple dose regimen
Procedure: as §1, §2

[3] = target: human somatostatin receptor SSTR2 of IMR-32 human neuroblastoma cells (human) (UniProt P30874); assay: uptake of applied cpm by SSTR+ human cancer cells; competitor somatostatin at 1000X molar excess
Sequence of UniProt P30874 (P30874 whole entry): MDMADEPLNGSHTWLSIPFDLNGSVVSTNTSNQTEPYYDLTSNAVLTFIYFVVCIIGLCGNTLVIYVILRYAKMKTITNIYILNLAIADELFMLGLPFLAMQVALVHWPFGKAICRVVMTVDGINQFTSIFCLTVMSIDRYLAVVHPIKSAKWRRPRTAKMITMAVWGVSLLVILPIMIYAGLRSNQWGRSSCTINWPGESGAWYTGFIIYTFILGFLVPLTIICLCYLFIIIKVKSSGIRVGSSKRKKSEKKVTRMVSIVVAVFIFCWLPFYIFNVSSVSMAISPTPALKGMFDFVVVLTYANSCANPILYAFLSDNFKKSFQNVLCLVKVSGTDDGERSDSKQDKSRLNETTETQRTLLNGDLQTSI

[4] = target: human somatostatin receptor SSTR2 of IMR-32 human neuroblastoma cells (human) (UniProt P30874); assay: uptake of applied cpm by SSTR+ human cancer cells, 20-24 h at 37 C, gamma counting
[5] = target: human somatostatin receptor SSTR2 of IMR-32 human neuroblastoma cells (human) (UniProt P30874); assay: competition with Indium-111-octreotide on IMR-32 membrane extracts, filter assay, gamma counting

Molecule: CC[C@H](C)[C@@H]([C@@H](CC(=O)N1CCC[C@H]1[C@H](OC)[C@@H](C)C(=O)N[C@H](C)[C@@H](O)c1ccccc1)OC)N(C)C(=O)[C@@H](NC(=O)[C@H](C(C)C)N(C)C)C(C)C [AE, Auristatin E]
MTD (maximal tolerable dose) [1]: 0.4 mg/kg | Mean mouse weight [2]: slightly increased | Serum growth hormone levels (growth hormone): relative stability | Mean tumor volume (IMR-32 cells): reduction in mean tumor volume

Percentage (%) Uptake in the Presence of 1000X SST [3]: 0.1% | Percentage (%) Uptake [4]: 4.4%
Molecule: Indium-111-octreotide (peptide)

IC50 [5]: 3 nM
Molecule: octreotide (unlabeled) (peptide)
